Data: ChEMBL document CHEMBL3817791, “Discovery of 4-(4-aminopyrazolo[1,5-a][1,3,5]triazin-8-yl)benzamides as novel, highly potent and selective, orally bioavailable inhibitors of Tyrosine Threonine Kinase, TTK” (Bioorg Med Chem Lett, 2016)

Experiments:
[1] = Cmax in CD-1 nude mouse at 10 mg/ml, po; type: ADME, organism-based; design: dose 10 mg/ml, route oral; details: in vivo
[2] = Cmax in CD-1 nude mouse at 55 mg/ml, po; type: ADME, organism-based; design: dose 55 mg/ml, route oral; details: in vivo
[3] = Cmax in CD-1 nude mouse at 70 mg/ml, po; type: ADME, organism-based; design: dose 70 mg/ml, route oral; details: in vivo
[4] = Cmax in CD-1 nude mouse at 100 mg/ml, po; type: ADME, organism-based; design: dose 100 mg/ml, route oral; details: in vivo
[5] = target: T1, Dual specificity protein kinase TTK (Homo sapiens, UniProt P33981); assay: Competitive inhibition of TTK (unknown origin) by double reciprocal plot analysis in presence of ATP
T1 sequence (P33981 whole entry): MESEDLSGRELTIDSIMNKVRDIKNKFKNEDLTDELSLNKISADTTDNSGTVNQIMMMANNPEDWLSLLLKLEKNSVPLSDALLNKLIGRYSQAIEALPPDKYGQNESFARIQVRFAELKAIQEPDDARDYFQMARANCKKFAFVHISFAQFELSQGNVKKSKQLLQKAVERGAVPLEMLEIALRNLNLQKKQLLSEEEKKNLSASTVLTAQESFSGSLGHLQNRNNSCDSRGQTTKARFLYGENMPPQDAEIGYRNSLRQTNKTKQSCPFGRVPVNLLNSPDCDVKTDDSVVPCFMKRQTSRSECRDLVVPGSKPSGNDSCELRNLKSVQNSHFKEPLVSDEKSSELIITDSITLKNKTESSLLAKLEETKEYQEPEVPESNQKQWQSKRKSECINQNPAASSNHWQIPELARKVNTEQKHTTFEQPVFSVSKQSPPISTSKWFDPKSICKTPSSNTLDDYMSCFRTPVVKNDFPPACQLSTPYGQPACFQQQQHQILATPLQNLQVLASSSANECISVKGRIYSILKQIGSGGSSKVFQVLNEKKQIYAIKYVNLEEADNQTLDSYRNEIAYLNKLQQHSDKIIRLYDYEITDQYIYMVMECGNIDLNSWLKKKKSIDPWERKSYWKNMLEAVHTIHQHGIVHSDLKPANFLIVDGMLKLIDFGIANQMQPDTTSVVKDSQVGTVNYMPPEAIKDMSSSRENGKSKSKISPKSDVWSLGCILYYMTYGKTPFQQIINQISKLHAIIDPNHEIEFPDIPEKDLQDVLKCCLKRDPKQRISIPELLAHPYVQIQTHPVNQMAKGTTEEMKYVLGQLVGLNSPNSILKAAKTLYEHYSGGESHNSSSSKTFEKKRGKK

[6] = target: MAP kinase-activated protein kinase 2 (Homo sapiens) (UniProt P49137); assay: Inhibition of recombinant human N-terminal GST-tagged MAPKAPK2 (46 to 400 residues) expressed in Escherichia coli at 1 uM by radiometric assay relative to control
[7] = target: Rho-associated protein kinase 2 (Homo sapiens) (UniProt O75116); assay: Inhibition of recombinant human N-terminal His6-tagged ROCK2 (11 to 552 residues) expressed in baculovirus infected Sf21 cells at 1 uM by radiometric assay relative to control
[8] = target: T2, Serine/threonine-protein kinase PLK4 (Homo sapiens, UniProt O00444); assay: Inhibition of human PLK4 by radiometric assay
T2 sequence (O00444 whole entry): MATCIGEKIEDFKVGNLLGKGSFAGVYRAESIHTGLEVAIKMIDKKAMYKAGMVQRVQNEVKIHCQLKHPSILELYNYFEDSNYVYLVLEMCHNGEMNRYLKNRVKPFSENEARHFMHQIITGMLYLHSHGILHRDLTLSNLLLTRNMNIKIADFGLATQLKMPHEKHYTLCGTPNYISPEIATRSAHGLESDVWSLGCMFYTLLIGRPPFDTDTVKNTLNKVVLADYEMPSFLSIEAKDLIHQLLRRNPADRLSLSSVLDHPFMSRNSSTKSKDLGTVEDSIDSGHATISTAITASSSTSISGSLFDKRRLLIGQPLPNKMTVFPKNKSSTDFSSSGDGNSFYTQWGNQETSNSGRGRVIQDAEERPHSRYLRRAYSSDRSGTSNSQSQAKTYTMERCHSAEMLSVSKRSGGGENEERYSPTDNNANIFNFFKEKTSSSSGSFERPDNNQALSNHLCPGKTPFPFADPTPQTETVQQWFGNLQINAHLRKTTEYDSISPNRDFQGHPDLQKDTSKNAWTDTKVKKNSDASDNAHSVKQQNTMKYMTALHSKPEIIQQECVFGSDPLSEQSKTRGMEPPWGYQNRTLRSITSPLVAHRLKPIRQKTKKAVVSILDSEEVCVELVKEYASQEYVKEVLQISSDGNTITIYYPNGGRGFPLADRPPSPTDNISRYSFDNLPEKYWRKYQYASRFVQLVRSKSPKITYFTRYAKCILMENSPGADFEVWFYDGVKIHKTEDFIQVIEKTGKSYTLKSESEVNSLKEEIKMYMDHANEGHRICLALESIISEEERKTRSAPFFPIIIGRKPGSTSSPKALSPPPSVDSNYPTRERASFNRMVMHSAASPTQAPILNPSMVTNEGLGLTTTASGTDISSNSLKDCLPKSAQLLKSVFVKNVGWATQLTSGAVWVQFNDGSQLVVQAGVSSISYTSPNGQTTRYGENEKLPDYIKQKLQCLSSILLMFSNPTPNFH

MDA-MB-231 = assay: Antiproliferative activity against human MDA-MB-231 cells; type: functional
[9] = Antiproliferative activity against human OVCAR3 cells; type: functional; details: OVCAR-3
Cytochrome P450 3A4 = Cytochrome P450 3A4 (Homo sapiens, UniProt P08684); assay: Inhibition of CYP3A4 (unknown origin); type: ADME
[10] = Half life in rat microsomes; type: ADME, Microsome
[11] = Half life in human microsomes; type: ADME, Microsome
HT-29 = assay: Antiproliferative activity against human HT-29 cells; type: functional
[12] = Antiproliferative activity against human PA1 cells; type: functional; details: PA-1
MDA-MB-468 = assay: Antiproliferative activity against human MDA-MB-468 cells; type: functional
[13] = Oral bioavailability in Sprague-Dawley rat; type: ADME, organism-based; details: in vivo
[14] = Cmax in Sprague-Dawley rat at 1 mg/ml, iv; type: ADME, organism-based; design: dose 1 mg/ml, route intravenous; details: in vivo
[15] = AUC (0 to infinity) in Sprague-Dawley rat at 1 mg/ml, iv; type: ADME, organism-based; design: dose 1 mg/ml, time infinity, route intravenous; details: in vivo
[16] = Half life in Sprague-Dawley rat at 1 mg/ml, iv; type: ADME, organism-based; details: in vivo
[17] = Volume of distribution at steady state in Sprague-Dawley rat at 1 mg/ml, iv; type: ADME, organism-based; details: in vivo, read-out: Vdss
[18] = Cmax in Sprague-Dawley rat at 5 mg/ml, iv; type: ADME, organism-based; design: dose 5 mg/ml, route intravenous; details: in vivo
[19] = AUC (0 to infinity) in Sprague-Dawley rat at 5 mg/ml, iv; type: ADME, organism-based; design: dose 5 mg/ml, route intravenous, time infinity; details: in vivo
[20] = Half life in Sprague-Dawley rat at 5 mg/ml, iv; type: ADME, organism-based; details: in vivo
[21] = Protein binding in human plasma; type: ADME, cell-free; details: read-out: PPB (converted)
[22] = AUC (0 to last) in CD-1 nude mouse at 10 mg/ml, po; type: ADME, organism-based; design: dose 10 mg/ml, route oral, time 0 - last; details: in vivo
[23] = AUC (0 to last) in CD-1 nude mouse at 25 mg/ml, po; type: ADME, organism-based; design: dose 25 mg/ml, time 0 - last, route oral; details: in vivo
[24] = AUC (0 to last) in CD-1 nude mouse at 55 mg/ml, po; type: ADME, organism-based; design: dose 55 mg/ml, route oral, time 0 - last; details: in vivo

Sequence of MAP kinase-activated protein kinase 2 (Homo sapiens) (P49137 whole entry, looked up, the tested form may be a part): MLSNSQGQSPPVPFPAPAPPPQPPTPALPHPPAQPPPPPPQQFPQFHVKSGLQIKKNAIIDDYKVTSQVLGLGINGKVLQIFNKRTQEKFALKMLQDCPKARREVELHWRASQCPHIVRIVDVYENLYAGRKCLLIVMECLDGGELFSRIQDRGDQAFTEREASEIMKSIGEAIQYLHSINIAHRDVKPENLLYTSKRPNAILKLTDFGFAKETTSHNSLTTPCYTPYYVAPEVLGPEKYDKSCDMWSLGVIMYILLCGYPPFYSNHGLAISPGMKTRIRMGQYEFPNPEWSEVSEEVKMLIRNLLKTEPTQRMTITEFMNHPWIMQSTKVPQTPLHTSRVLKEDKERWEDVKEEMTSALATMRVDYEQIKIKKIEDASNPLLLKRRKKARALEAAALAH
Sequence of Rho-associated protein kinase 2 (Homo sapiens) (O75116 whole entry, looked up, the tested form may be a part): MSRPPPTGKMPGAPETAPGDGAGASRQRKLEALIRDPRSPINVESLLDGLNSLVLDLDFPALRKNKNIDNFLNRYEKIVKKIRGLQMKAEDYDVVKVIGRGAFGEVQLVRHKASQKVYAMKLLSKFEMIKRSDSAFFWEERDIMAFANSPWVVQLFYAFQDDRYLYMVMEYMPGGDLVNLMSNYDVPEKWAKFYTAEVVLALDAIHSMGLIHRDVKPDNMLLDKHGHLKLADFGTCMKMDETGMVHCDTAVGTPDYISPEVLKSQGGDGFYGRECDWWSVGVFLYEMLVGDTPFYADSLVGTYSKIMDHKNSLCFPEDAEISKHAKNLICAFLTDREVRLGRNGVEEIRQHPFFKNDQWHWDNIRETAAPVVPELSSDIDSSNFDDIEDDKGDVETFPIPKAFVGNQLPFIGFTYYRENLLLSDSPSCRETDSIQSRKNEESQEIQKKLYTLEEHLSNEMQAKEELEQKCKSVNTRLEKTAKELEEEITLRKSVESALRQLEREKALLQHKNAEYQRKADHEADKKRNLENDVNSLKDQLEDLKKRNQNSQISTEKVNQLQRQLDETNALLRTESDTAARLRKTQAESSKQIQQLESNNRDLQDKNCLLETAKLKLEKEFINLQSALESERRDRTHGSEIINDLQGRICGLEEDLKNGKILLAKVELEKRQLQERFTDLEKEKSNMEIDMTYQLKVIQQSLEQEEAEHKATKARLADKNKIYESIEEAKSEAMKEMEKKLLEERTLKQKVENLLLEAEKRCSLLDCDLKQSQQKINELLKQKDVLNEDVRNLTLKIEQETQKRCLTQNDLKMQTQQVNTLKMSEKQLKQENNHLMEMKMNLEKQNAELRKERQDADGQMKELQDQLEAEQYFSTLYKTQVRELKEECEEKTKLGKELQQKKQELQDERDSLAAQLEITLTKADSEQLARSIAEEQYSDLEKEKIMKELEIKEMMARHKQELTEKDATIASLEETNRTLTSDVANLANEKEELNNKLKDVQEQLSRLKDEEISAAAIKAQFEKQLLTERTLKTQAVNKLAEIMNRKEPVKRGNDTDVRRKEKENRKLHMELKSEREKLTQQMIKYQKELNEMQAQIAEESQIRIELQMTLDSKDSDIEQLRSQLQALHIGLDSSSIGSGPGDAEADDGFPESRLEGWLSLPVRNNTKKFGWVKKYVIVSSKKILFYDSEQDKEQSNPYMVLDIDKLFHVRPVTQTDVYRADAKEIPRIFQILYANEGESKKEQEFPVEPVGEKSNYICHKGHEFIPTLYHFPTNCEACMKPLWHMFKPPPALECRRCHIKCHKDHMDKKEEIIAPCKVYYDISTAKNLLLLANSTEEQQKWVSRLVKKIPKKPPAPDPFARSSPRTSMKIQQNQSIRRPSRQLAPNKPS
Sequence of Cytochrome P450 3A4 (P08684 whole entry): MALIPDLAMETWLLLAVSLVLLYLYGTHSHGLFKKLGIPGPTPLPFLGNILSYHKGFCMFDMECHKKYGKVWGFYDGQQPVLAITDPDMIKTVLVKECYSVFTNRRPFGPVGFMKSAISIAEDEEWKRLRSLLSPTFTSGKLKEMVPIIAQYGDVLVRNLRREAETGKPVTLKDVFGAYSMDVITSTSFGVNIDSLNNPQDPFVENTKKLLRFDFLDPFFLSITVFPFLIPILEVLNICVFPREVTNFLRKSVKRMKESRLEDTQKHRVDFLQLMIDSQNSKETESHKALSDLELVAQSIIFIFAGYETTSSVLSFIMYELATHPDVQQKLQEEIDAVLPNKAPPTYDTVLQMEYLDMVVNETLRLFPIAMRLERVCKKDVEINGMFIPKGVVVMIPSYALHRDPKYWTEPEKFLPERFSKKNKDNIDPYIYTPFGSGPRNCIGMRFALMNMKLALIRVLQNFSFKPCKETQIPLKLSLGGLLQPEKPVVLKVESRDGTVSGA

Cmax [1]: 890 ng/mL
Cmax [2]: 7600 ng/mL
Cmax [3]: 7700 ng/mL
Cmax [4]: 2900 ng/mL
Ki [5]: 0.77 nM
inhibition [6]: -8%
inhibition [7]: 0%
IC50 [8]: > 50000 nM
GI50 (MDA-MB-231): 32 nM
IC50 (Cytochrome P450 3A4): 800 nM
half-life [10]: > 1 h
half-life [11]: > 1 h
GI50 (HT-29): 15 nM
GI50 (MDA-MB-468): 160 nM
bioavailability [13]: 97%
Cmax [14]: 411 ng/mL
AUC(0-inf) [15]: 871 ng·h/mL
half-life [16]: 1.53 h
Vd [17]: 2.8 L
Cmax [18]: 841 ng/mL
AUC(0-inf) [19]: 4230 ng·h/mL
half-life [20]: 1.7 h
fraction unbound [21]: 0.028
AUC(0-t) [22]: 1530 ng·h/mL
AUC(0-t) [23]: 19100 ng·h/mL
AUC(0-t) [24]: 38100 ng·h/mL
Compound: Cc1cc(-c2cnn3c(NCC4CCOCC4)nc(Oc4ccccc4)nc23)ccc1C(=O)NC1CC1
GI50 [9]: 190 nM
GI50 [12]: 30 nM
